Measurements published in paper PMC4961623 (Journal of neurochemistry, 2016).

Molecular target: T1, sterol carrier protein-2 (SCP-2) (Homo sapiens, UniProt P22307)
T1 sequence (P22307 425-547): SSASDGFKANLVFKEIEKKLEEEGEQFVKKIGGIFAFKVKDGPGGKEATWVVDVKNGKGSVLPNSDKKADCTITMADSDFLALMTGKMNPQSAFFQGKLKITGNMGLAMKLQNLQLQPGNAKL
Test: fluorescent cis-parinaric acid displacement assay
Type: binding

In the case of CCCCC/C=C\C/C=C\C/C=C\C/C=C\CCCC(=O)OC(CO)CO [2-AG, 2-arachidonoylglycerol], the Ki is reported as 200 ± 10 nM.

Compound CCCCC/C=C\C/C=C\C/C=C\C/C=C\CCCC(=O)NCCO [AEA, arachidonoylethanolamide] has a Ki of 290 ± 10 nM.
